# In patent publication US8709419B2, “Combination therapy” (Hoffmann-La Roche, Inc., priority 2010, dated 2014):
# Structures can show the parent of a compound that is named as a salt. Where two headings read alike, the source gives them in different places.
# Experiments:
# [1] = test system: Human HT-29 Cell Xenografts; conditions: for tumor regression (partial or complete): Ex.6: Compound I 25 mg/kg bid, cetuximab 40 mg/kg 2x/wk, irinotecan HCl 40 mg/kg q4d x5 monotherapies, cetuximab + irinotecan combination
# [2] = Toxicity in Example 6 study: body weight change, mortality, gross observation
# [3] = test system: Human HT-29 Cell Xenografts; assay: HT-29 xenograft mice, Example 4 (Compound I / erlotinib HCl, treatment day 12-29): tumor growth inhibition, regression, survival; type: in vivo; conditions: for Complete Regression / Partial Regression: animals of 10 per group; for 50% Treatment Days: median survival
# Protocol: (§1) Differences between groups were considered to be significant when the probability value (p) was ≦0.05.
# (§2) For survival assessment, the percent of increased life space (ILS) was calculated as: 100×[(median survival day of treated group−median survival day of control group)/median survival day of control group]. Median survival was determined utilizing Kaplan Meier survival analysis. […] Differences between groups were considered significant when the probability value (p) was ≦0.05.
# (§3) Tumor measurements were taken once or twice per week. All animals were individually followed throughout the experiment.
# [4] = Toxicity in Example 4 study: body weight change, mortality, gross observation
# Protocol: Erlotinib hydrochloride at 100 mg/kg qd was included as a monotherapy arm for comparison.
# [5] = erlotinib hydrochloride 100 mg/kg qd in combination; Higgins et al., Anticancer Drugs 15:503-12 (2004); cited from earlier work
# [6] = test system: Human HT-29 Cell Xenografts; assay: HT-29 xenograft mice, Example 5 (Compound I / cetuximab, treatment day 12-34): tumor growth inhibition, regression, survival; type: in vivo; conditions: for 50% Treatment Days: median survival
# Protocol: as §1, §2, §3
# [7] = Solubility in water, amorphous versus crystalline form; type: physicochemical; conditions: amorphous form as compared with the crystalline form
# [8] = Toxicity in Example 5 study: body weight change, mortality, gross observation
# [9] = Ex.6: irinotecan HCl 40 mg/kg q4d x5 ip
# [10] = Ex.4: erlotinib HCl 67 mg/kg qd po
# [11] = Ex.4: erlotinib HCl 100 mg/kg qd po
# [12] = Ex.4: Compound I 75 mg/kg bid po
# [13] = Ex.5: Compound I 25 mg/kg bid po
# [14] = Ex.5: Compound I 75 mg/kg bid po
# [15] = Ex.5: Compound I 75 mg/kg bid po, animals of 10 per group
# [16] = Ex.6: Compound I 25 mg/kg bid po, animals of 10 per group
# [17] = Ex.6: Compound I 25 mg/kg bid po
structure (smiles),measurement,setting,value
"CCc1c2c(nc3ccc(OC(=O)N4CCC(N5CCCCC5)CC4)cc13)-c1cc3c(c(=O)n1C2)COC(=O)[C@]3(O)CC [Irinotecan HCl, irinotecan hydrochloride, reference compound]",tumor regression (partial or complete),[1],no regressions
same,% ILS,[1]; [9],17%
same,# animals ≧ 20% BWL,[2]; [9],0
same,% Change in Body Weight at end of Study Day 32,[2]; [9],2.7%
same,Max % Weight Gain,[2]; [9],2.8%
same,Max % Weight Loss,[2]; [9],0.1%
same,Mortality,[2]; [9],0
"C#Cc1cccc(Nc2ncnc3cc(OCCOC)c(OCCOC)cc23)c1 [Erlotinib HCl, erlotinib hydrochloride]",% ILS,[3]; [10],35%
same,% Inhibition end of study Day: 29,[3]; [10],38%
same,% T/C end of study Day: 29,[3]; [10],62%
same,% Tumor Growth Inhibition,[3]; [10],38%
same,Mean Tumor Volume (mm^3) End Study,[3]; [10],1025.10 mm^3
same,Complete Regression,[3]; [10],0
same,Partial Regression,[3]; [10],0
same,50% Treatment Days,[3]; [10],35 days
same,% ILS,[3]; [11],38%
same,% Inhibition end of study Day: 29,[3]; [11],51%
same,% T/C end of study Day: 29,[3]; [11],49%
same,% Tumor Growth Inhibition,[3]; [11],51%
same,Mean Tumor Volume (mm^3) End Study,[3]; [11],838.75 mm^3
same,Complete Regression,[3]; [11],0
same,Partial Regression,[3]; [11],0
same,50% Treatment Days,[3]; [11],36 days
same,# animals ≧ 20% BWL,[4]; [10],0
same,% Change in Body Weight at end of Study Day 29,[4]; [10],3.1%
same,Max % Weight Gain,[4]; [10],3.1%
same,Max % Weight Loss,[4]; [10],0.1%
same,Mortality,[4]; [10],0
same,# animals ≧ 20% BWL,[4]; [11],0
same,% Change in Body Weight at end of Study Day 29,[4]; [11],2.9%
same,Max % Weight Gain,[4]; [11],3.0%
same,Max % Weight Loss,[4]; [11],−1.6%
same,Mortality,[4]; [11],0
same,EGFR inhibitor related skin rash,"[4]; Ex.4: mice treated with erlotinib hydrochloride, self limiting under continuous treatment",skin rash was common
same,tolerability in combination (historical),[5],not well tolerated
"CCCS(=O)(=O)Nc1ccc(F)c(C(=O)c2c[nH]c3ncc(-c4ccc(Cl)cc4)cc23)c1F [Compound I, propane-1-sulfonic acid {3-[5-(4-chloro-phenyl)-1H-pyrrolo[2,3-b]pyridine-3-carbonyl]-2,4-difluoro-phenyl}-amide]",% ILS,[3]; [12],100%
same,% Inhibition end of study Day: 29,[3]; [12],91%
same,% T/C end of study Day: 29,[3]; [12],9%
same,% Tumor Growth Inhibition,[3]; [12],91%
same,Mean Tumor Volume (mm^3) End Study,[3]; [12],270.24 mm^3
same,Complete Regression,[3]; [12],0
same,Partial Regression,[3]; [12],0
same,50% Treatment Days,[3]; [12],52 days
same,% ILS,[6]; [13],44%
same,% Inhibition end of study Day: 34,[6]; [13],74%
same,% T/C end of study Day: 34,[6]; [13],26%
same,% Tumor Growth Inhibition,[6]; [13],74%
same,Mean Tumor Volume (mm^3) End Study,[6]; [13],615.99 mm^3
same,50% Treatment Days,[6]; [13],46 days
same,% ILS,[6]; [14],75%
same,% Inhibition end of study Day: 34,[6]; [14],93%
same,% T/C end of study Day: 34,[6]; [14],7%
same,% Tumor Growth Inhibition,[6]; [14],93%
same,Mean Tumor Volume (mm^3) End Study,[6]; [14],275.66 mm^3
same,Complete Regression,[6]; [15],0
same,Partial Regression,[6]; [15],0
same,50% Treatment Days,[6]; [14],56 days
same,solubility in water,[7],greater solubility in water
same,Complete Regression,[1]; [16],0
same,Partial Regression,[1]; [16],0
same,tumor regression (partial or complete),[1],no regressions
same,# animals ≧ 20% BWL,[8]; [13],0
same,% Change in Body Weight at end of Study Day 34,[8]; [13],0.1%
same,Max % Weight Gain,[8]; [13],0.3%
same,Max % Weight Loss,[8]; [13],−2.2%
same,Mortality,[8]; [13],0
same,# animals ≧ 20% BWL,[8]; [14],0
same,% Change in Body Weight at end of Study Day 34,[8]; [14],−0.1%
same,Max % Weight Gain,[8]; [14],0.7%
same,Max % Weight Loss,[8]; [14],−1.4%
same,Mortality,[8]; [14],0
same,# animals ≧ 20% BWL,[2]; [17],0
same,% Change in Body Weight at end of Study Day 32,[2]; [17],2.9%
same,Max % Weight Gain,[2]; [17],3.8%
same,Max % Weight Loss,[2]; [17],−0.6%
same,Mortality,[2]; [17],0
